# Experimental data as given in paper PMC6882365, “Directed evolution of the PcaV allosteric transcription factor to generate a biosensor for aromatic aldehydes” (Journal of Biological Engineering, 2019).
# Changes are numbered by the printed parent chain.
# T1: Van2 (PcaV mutant) (Streptomyces coelicolor, UniProt Q9XAM6, I110V/M113S/N114A)
# T1 construct: gene SCO6704; His-TEV tag-cleaved purified protein, homodimer
# T1 sequence (Q9XAM6 1-154 I110V/M113S/N114A): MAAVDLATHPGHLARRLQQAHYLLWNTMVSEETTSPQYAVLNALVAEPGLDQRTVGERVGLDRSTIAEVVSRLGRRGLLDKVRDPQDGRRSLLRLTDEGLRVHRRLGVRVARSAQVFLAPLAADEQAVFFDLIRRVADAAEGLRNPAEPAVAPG
# T2: Van2 (Streptomyces coelicolor, UniProt Q9XAM6 1-154, I110V;M113S;N114A)
# T2 sequence: T1 sequence (Q9XAM6 1-154 I110V/M113S/N114A)
# T3: PcaV (Streptomyces coelicolor, UniProt Q9XAM6 1-154)
# T3 sequence: T1 sequence (Q9XAM6 1-154 I110V/M113S/N114A) with V110I, S113M, A114N
# B1: PV Probe Bio (dsDNA)
# DNA 1: TTGACTATACTCAGTGCCCTGACTATGATACT
# DNA 2: AGTATCATAGTCAGGGCACTGAGTATAGTCAA
# B2: PV Probe (IR700 duplex) (dsDNA)
# DNA 1: B1 DNA 1
# DNA 2: B1 DNA 2
# B3: Rnd Probe (IR700 duplex) (dsDNA)
# DNA 1: GAGTTAGAGTACGCGTTAAACACTTCACAGAT
# DNA 2: ATCTGTGAAGTGTTTAACGCGTACTCTAACTC
# Key:
# Van2 (PcaV mutant) [1] = target: T4, Van2 (PcaV mutant) (Streptomyces coelicolor, UniProt Q9XAM6, I110V/M113S/N114A); test: cell-based; conditions: read-out: E. coli RARE eGFP derepression reporter, 2.5 mM
# T4 construct: gene SCO6704
# PcaV [2] = target: T5, PcaV (Streptomyces coelicolor, UniProt Q9XAM6); test: E. coli PcaV/PPV-eGFP derepression reporter, dose response; format: cell-based
# T5 construct: gene SCO6704
# PcaV N114A = target: T6, PcaV N114A (Streptomyces coelicolor, UniProt Q9XAM6, N114A); test: cell-based; conditions: read-out: Max/Min (2.5 mM induction) / PCA
# T6 construct: gene SCO6704
# Van2 (PcaV mutant) [3] = target: T1, Van2 (PcaV mutant); test: EMSA titration ([…]), disruption of the Van2-PV DNA complex; no response in cells; format: biochemical
# PcaV I110V = target: T7, PcaV I110V (Streptomyces coelicolor, UniProt Q9XAM6, I110V); test: cell-based; conditions: read-out: Max/Min (2.5 mM induction) / PCA
# T7 construct: gene SCO6704
# [4] = target: PcaV allosteric transcription factor from Streptomyces coelicolor (Streptomyces coelicolor); test: SEC-MALS; 0.75 mL at 1.5 mg/mL loaded on Superdex 10/300 GL; in the absence of the effector
# [5] = target: Van2 aTF (PcaV I110V M113S N114A) (Streptomyces coelicolor); test: as above
# Van2 [6] = target: T2, Van2; test: SPR; no effector; 9.4-600 nM protein; SPR: 10 mM Hepes, 150 mM NaCl, pH 7.4 (temperature not stated); EMSA: 50 mM Tris-HCl, 50 mM KCl, 5 mM MgCl2, 1 mM EDTA, 5% glycerol, 0.1 ug poly(dI-dC), 1 mM DTT, 30 C 20 min (+30 min with ligand); conditions: protein: recombinant; tags: N-terminal His-TEV, removed by TEV protease; chain copies: 2; label: 5' biotin on strand 1; blunt
# PcaV [7] = target: T3, PcaV; test: EMSA; no effector; 250 nM protein, 500 pM probe; SPR: 10 mM Hepes, 150 mM NaCl, pH 7.4 (temperature not stated); EMSA: 50 mM Tris-HCl, 50 mM KCl, 5 mM MgCl2, 1 mM EDTA, 5% glycerol, 0.1 ug poly(dI-dC), 1 mM DTT, 30 C 20 min (+30 min with ligand); conditions: protein: recombinant; tags: N-terminal His-TEV, removed by TEV protease; chain copies: 2; label: 5' IRD700 on both strands; blunt
# Van2 [8] = target: T2, Van2; test: EMSA; no effector; 500 nM protein, 500 pM probe; SPR: 10 mM Hepes, 150 mM NaCl, pH 7.4 (temperature not stated); EMSA: 50 mM Tris-HCl, 50 mM KCl, 5 mM MgCl2, 1 mM EDTA, 5% glycerol, 0.1 ug poly(dI-dC), 1 mM DTT, 30 C 20 min (+30 min with ligand); conditions: protein: recombinant; tags: N-terminal His-TEV, removed by TEV protease; chain copies: 2; label: 5' IRD700 on both strands; blunt
molecule,measurement,setting,value
O=Cc1ccccc1O [2-hydroxybenzaldehyde],fold induction at 2500 µM,Van2 (PcaV mutant) [1],> 6
"O=Cc1ccc(O)c(O)c1 [3,4-dihydroxybenzaldehyde]",fold induction at 2500 µM,Van2 (PcaV mutant) [1],> 6
"O=C(O)c1cccc(O)c1 [3HB, 3-hydroxybenzoic acid]","E. coli PcaV/PPV-eGFP derepression reporter, dose response",PcaV [2],"3-hydroxybenzoic acid (3HB) and 4-hydroxybenzoic acid (4HB), as observed by fitting the dose response curves"
Cc1cc(C=O)ccc1O [4-hydroxy-3-methylbenzaldehyde],fold induction at 2500 µM,Van2 (PcaV mutant) [1],> 6
"O=C(O)c1ccc(O)cc1 [4HB, 4-hydroxybenzoic acid]","E. coli PcaV/PPV-eGFP derepression reporter, dose response",PcaV [2],"3-hydroxybenzoic acid (3HB) and 4-hydroxybenzoic acid (4HB), as observed by fitting the dose response curves"
"O=C(O)c1ccc(O)c(O)c1 [PCA, 3,4-dihydroxybenzoic acid]",fold induction at 2500 µM,PcaV N114A,18
same,"EMSA titration (2.5-12.5 mM), disruption of the Van2-PV DNA complex; no response",Van2 (PcaV mutant) [3],Van2 responds to vanillin but is still responsive to PCA in contradiction with the observed in vivo biosensor performance
same,fold induction at 2500 µM,PcaV I110V,304
PcaV allosteric transcription factor from Streptomyces coelicolor (natural protein),stoichiometry N,[4],2
Van2 aTF (PcaV I110V M113S N114A),stoichiometry N,[5],2
B1,Kd,Van2 [6],86.7 nM
B2,binding result,PcaV [7],binds
B3,binding result,Van2 [8],no binding
